Measurements reported in PubChem BioAssay AID248 (DTP/NCI, 2004).
Values joined by “and” are separate entries in the source; they are usually repeats but may differ in a detail not shown here. Equal values may be shown once. Toxic doses and inconclusive results are not listed. Cut-off read from the data, not from the text of the source: active = T/C of 150% or more; inactive = T/C below 125%.

System: L1210 leukemia ip in BDF1 mice, survival T/C
Experiment: NCI In Vivo Anticancer Drug Screen. Data for tumor model L1210 Leukemia (intraperitoneal) in B6D2F1 (BDF1) mice
Details: endpoint: mean survival time, higher = longer survival
How it was run: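 Value reflects the ratio of survival in compound-treated mice to survival in vehicle-treated controls, with both groups carrying the same transplanted tumor.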

[1] = dose: 50.0 mg/kg/injection, schedule: Q01DX009 (ip), vehicle: saline
[2] = dose: 100.0 mg/kg/injection, schedule: Q01DX009 (ip), vehicle: saline with Tween-80
[3] = dose: 100.0 mg/kg/injection, schedule: Q01DX009 (ip), vehicle: saline
[4] = dose: 200.0 mg/kg/injection, schedule: Q01DX009 (ip), vehicle: saline with Tween-80
[5] = dose: 200.0 mg/kg/injection, schedule: Q01DX009 (ip), vehicle: saline
[6] = dose: 25.0 mg/kg/injection, schedule: Q01DX009 (ip), vehicle: saline
[7] = dose: 100.0 mg/kg/injection, schedule: Q04DX003 (ip), vehicle: saline with Tween-80
[8] = dose: 200.0 mg/kg/injection, schedule: Q04DX003 (ip), vehicle: saline with Tween-80
[9] = dose: 400.0 mg/kg/injection, schedule: Q04DX003 (ip), vehicle: saline with Tween-80
[10] = dose: 100.0 mg/kg/injection, schedule: Q01DX001 (ip), vehicle: saline with Tween-80
[11] = dose: 200.0 mg/kg/injection, schedule: Q01DX001 (ip), vehicle: saline with Tween-80
[12] = dose: 400.0 mg/kg/injection, schedule: Q01DX001 (ip), vehicle: saline with Tween-80
[13] = dose: 400.0 mg/kg/injection, schedule: Q01DX009 (ip), vehicle: saline with Tween-80

Measured: T/C

CNC(=S)C(=S)NC
inactive: dose: 12.5 mg/kg/injection, schedule: Q04DX003 (ip), vehicle: saline with Tween-80 94 % of control | dose: 25.0 mg/kg/injection, schedule: Q04DX003 (ip), vehicle: saline with Tween-80 95 % of control

O=C(O)c1ccccc1/C=N/N1C(=O)CSC1=S
inactive: dose: 2.5 mg/kg/injection, schedule: Q01DX001 (ip), vehicle: carboxymethylcellulose (CMC) 97 % of control | dose: 5.0 mg/kg/injection, schedule: Q01DX001 (ip), vehicle: carboxymethylcellulose (CMC) 97 % of control | dose: 10.0 mg/kg/injection, schedule: Q01DX001 (ip), vehicle: carboxymethylcellulose (CMC) 109 % of control

NC(=S=O)c1ccccc1
inactive: dose: 50.0 mg/kg/injection, schedule: Q01DX009 (ip), vehicle: saline with Tween-80 93 % of control | [1] 101 % of control | [2] 97 % of control | [3] 96 % of control | [4] 93 % of control | [5] 104 % of control

O=C(O)c1nsnc1C(=O)O
inactive: dose: 200.0 mg/kg/injection, schedule: Q01DX001 (ip), vehicle: saline 102 % of control | dose: 400.0 mg/kg/injection, schedule: Q01DX001 (ip), vehicle: saline 103 % of control

C=C(C)COc1c(C)c(C)c(OCC(C)C)c(C)c1C
inactive: dose: 50.0 mg/kg/injection, schedule: Q04DX003 (ip), vehicle: Klucel (hydroxypropylcellulose) (HPC) 96 % of control | dose: 100.0 mg/kg/injection, schedule: Q04DX003 (ip), vehicle: Klucel (hydroxypropylcellulose) (HPC) 93 % of control | dose: 200.0 mg/kg/injection, schedule: Q04DX003 (ip), vehicle: Klucel (hydroxypropylcellulose) (HPC) 93 % of control

COc1ccc(/C=N/N2CCN(/N=C/c3ccc(OC)cc3)CC2)cc1
inactive: dose: 100.0 mg/kg/injection, schedule: Q01DX001 (ip), vehicle: carboxymethylcellulose (CMC) 88 % of control | dose: 200.0 mg/kg/injection, schedule: Q01DX001 (ip), vehicle: carboxymethylcellulose (CMC) 88 % of control | dose: 400.0 mg/kg/injection, schedule: Q01DX001 (ip), vehicle: carboxymethylcellulose (CMC) 93 % of control

CCOC(=O)c1ccc(NCC(C)(C)N(C)C)cc1
inactive: dose: 12.0 mg/kg/injection, schedule: Q01DX009 (ip), vehicle: saline 93 % of control | dose: 12.0 mg/kg/injection, schedule: Q04DX003 (ip), vehicle: saline 93 % of control | [6] 89 % of control | dose: 25.0 mg/kg/injection, schedule: Q04DX003 (ip), vehicle: saline 98 % of control | [1] 90 % of control | dose: 50.0 mg/kg/injection, schedule: Q04DX003 (ip), vehicle: saline 95 % of control

O=c1[nH]cnc2c1ncn2Cc1ccc([N+](=O)[O-])cc1
inactive: dose: 100.0 mg/kg/injection, schedule: Q01DX001 (ip), vehicle: other 96 % of control | [7] 102 % of control | dose: 200.0 mg/kg/injection, schedule: Q01DX001 (ip), vehicle: other 98 % of control | [8] 96 % of control | [9] 94 % of control

CNc1ccc(C(=O)O)cc1
inactive: [1] 102 % of control | [3] 109 % of control | [5] 106 % of control

O=S(=O)(c1ccc2ccccc2c1)C1CC1c1ccccc1 (stereo not given)
inactive: dose: 100.0 mg/kg/injection, schedule: Q01DX001 (ip), vehicle: acetone 92 % of control | dose: 200.0 mg/kg/injection, schedule: Q01DX001 (ip), vehicle: acetone 98 % of control | dose: 400.0 mg/kg/injection, schedule: Q01DX001 (ip), vehicle: acetone 93 % of control

O=C(O)c1ccccc1Cc1cccs1
inactive: [10] 98 % of control | [11] 95 % of control | [12] 92 % of control

CC(C)=NNC(=O)c1ccc(Cl)cc1
inactive: [2] 95 % of control | [4] 106 % of control | [13] 116 % of control

O=C(COc1cccc(Cl)c1)NCc1cccc(NC(=O)c2cccc(S(=O)(=O)F)c2)c1
inactive: dose: 100.0 mg/kg/injection, schedule: Q01DX001 (ip), vehicle: gum acacia 97 % of control | dose: 200.0 mg/kg/injection, schedule: Q01DX001 (ip), vehicle: gum acacia 93 % of control | dose: 400.0 mg/kg/injection, schedule: Q01DX001 (ip), vehicle: gum acacia 98 % of control

NCCCN
inactive: dose: 100.0 mg/kg/injection, schedule: Q04DX003 (ip), vehicle: saline 97 % of control | dose: 200.0 mg/kg/injection, schedule: Q04DX003 (ip), vehicle: saline 98 % of control | dose: 400.0 mg/kg/injection, schedule: Q04DX003 (ip), vehicle: saline 98 % of control

COC1OC(CCl)C(OC(=O)c2ccccc2)C(OC(=O)c2ccccc2)C1OC(=O)c1ccccc1 (stereo not given)
inactive: dose: 100.0 mg/kg/injection, schedule: Q04DX002 (ip), vehicle: Klucel (hydroxypropylcellulose) (HPC) 114 % of control | dose: 200.0 mg/kg/injection, schedule: Q04DX002 (ip), vehicle: Klucel (hydroxypropylcellulose) (HPC) 101 % of control | dose: 400.0 mg/kg/injection, schedule: Q04DX002 (ip), vehicle: Klucel (hydroxypropylcellulose) (HPC) 104 % of control

N#Cc1c(Br)n(C2OC(CO)C(O)C2O)c2ncncc12 (stereo not given)
inactive: dose: 100.0 mg/kg/injection, schedule: Q01DX005 (ip), vehicle: saline 114 % of control | dose: 200.0 mg/kg/injection, schedule: Q01DX005 (ip), vehicle: saline 114 % of control

CCOC(=O)C(CC(OCC)OCC)C(=O)OCC
inactive: [2] 95 % of control | [7] 101 % of control | [4] 96 % of control | [8] 108 % of control | [13] 96 % of control | [9] 100 % of control

S=C=Nc1cccc(N=C=S)c1
inactive: dose: 5.0 mg/kg/injection, schedule: Q01DX001 (ip), vehicle: acetone 105 % of control | dose: 10.0 mg/kg/injection, schedule: Q01DX001 (ip), vehicle: acetone 124 % of control | dose: 20.0 mg/kg/injection, schedule: Q01DX001 (ip), vehicle: acetone 100 % of control

C[C@H]1CC2=CC(=O)CC[C@]2(C)[C@H]2CC[C@@]3(C)[C@@H](CC[C@]3(C)O)[C@H]12
inactive: dose: 12.5 mg/kg/injection, schedule: Q01DX009 (sc), vehicle: saline 102 % of control | [6] 97 % of control | dose: 25.0 mg/kg/injection, schedule: Q01DX009 (sc), vehicle: saline 107 % of control | dose: 50.0 mg/kg/injection, schedule: Q01DX001 (sc), vehicle: steriod suspending solution 101 % of control | [1] 100 % of control | dose: 50.0 mg/kg/injection, schedule: Q01DX009 (sc), vehicle: saline 103 % of control | dose: 100.0 mg/kg/injection, schedule: Q01DX001 (sc), vehicle: steriod suspending solution 101 % of control | [3] 94 % of control | dose: 100.0 mg/kg/injection, schedule: Q01DX009 (sc), vehicle: saline 100 % of control | dose: 200.0 mg/kg/injection, schedule: Q01DX001 (sc), vehicle: steriod suspending solution 107 % of control | dose: 200.0 mg/kg/injection, schedule: Q01DX009 (ip), vehicle: acetone 96 % of control | [5] 96 % of control | dose: 200.0 mg/kg/injection, schedule: Q01DX009 (sc), vehicle: acetone 101 % of control | dose: 400.0 mg/kg/injection, schedule: Q01DX001 (sc), vehicle: steriod suspending solution 101 % of control

CCCCCCCCC(C(=O)c1ccccc1)=C(C(F)(F)F)C(F)(F)F
inactive: [6] 100 % of control | [1] 96 % of control | [3] 91 % of control | [7] 86 % of control | [8] 90 % of control | [9] 95 % of control

COC(=O)c1ccccc1NC(=S)NC(=O)c1ccc(Cl)cc1Cl
inactive: [10] 92 % of control | [2] 97 % of control and 102 % of control | dose: 100.0 mg/kg/injection, schedule: Q04DX002 (ip), vehicle: saline with Tween-80 101 % of control and 88 % of control | [7] 87 % of control | [11] 92 % of control | [4] 95 % of control and 97 % of control | dose: 200.0 mg/kg/injection, schedule: Q04DX002 (ip), vehicle: saline with Tween-80 103 % of control and 92 % of control | [8] 90 % of control | [12] 89 % of control | [13] 97 % of control and 98 % of control | dose: 400.0 mg/kg/injection, schedule: Q04DX002 (ip), vehicle: saline with Tween-80 106 % of control and 88 % of control | [9] 92 % of control

CN(C)C1(Cc2ccccc2)c2ccccc2-c2ccc(Br)cc21 (stereo not given)
inactive: dose: 6.25 mg/kg/injection, schedule: Q01DX009 (ip), vehicle: saline with Tween-80 92 % of control | dose: 12.5 mg/kg/injection, schedule: Q01DX009 (ip), vehicle: saline with Tween-80 89 % of control | dose: 25.0 mg/kg/injection, schedule: Q01DX009 (ip), vehicle: saline with Tween-80 89 % of control | [2] 88 % of control

CC(C)(C)C1CCC(O)C(Cl)C1 (stereo not given)
inactive: [3] 100 % of control | [5] 98 % of control
